Assay results from US20090137527A1, “Compositions and methods for modulating immune function” (Resolvyx Pharmaceuticals, Inc., priority 2007, published 2009).
Entries after “also recorded” stand apart in the source; their conditions may differ.

Legend:
[1] = test system: whole blood from CIA rats; assay: Ex vivo LPS-stimulated cytokines in whole blood from CIA rats; set-up: species or system rat; settings: 0.3 mg/kg i.v. twice daily (day 20 sample: 1 mg/kg orally twice daily) from day 8; 10 ng/mL LPS, 4 hours
Experimental: Female Lewis rats were anesthetized with 3-5% isoflurane and arthritis was induced by intradermal injection of 0.3 mL (100 μL at three different sites) of an emulsion […] 1.5 mg/mL of type II bovine collagen, CII (Elastin Products Inc., Cat# CM276), in incomplete Freund's adjuvant (IFA) at the base of the tail on day 0 and 6. Control rats were injected with an equal amount of IFA only.
were measured under two different treatment regimens. In the first (prophylactic) treatment regimen, Compound X was administered i.v., twice daily, at 0.3 mg/kg from day 0 to day 6 or 10. For ex vivo studies, animals were euthanized on day 6 after the last injection and their inguinal lymph nodes were harvested. […] For ex vivo studies, animals were euthanized on day 16 and inguinal lymph nodes were harvested. Venous blood samples were collected during the course of treatment. For CD3 activation, 96-well flat bottom plates were coated with anti-CD3 mAb (eBioscience, clone G4.18) 1 μg/mL. Plates were stored overnight at 4° C., and were subsequently rinsed with PBS once before use. […] All data were processed and analyzed by t-test using GraphPad Prism software.
To measure the effect of Compound X on blood cells, rat whole blood samples were taken on day 8, 10, 13, 16 and 20 (n=3-6). […] After 4 hours in culture, supernatants were collected and cytokine levels measured by Bioplex.

[2] = test system: mice with established Type II collagen arthritis; assay: Male DBA/1J mouse established Type II collagen arthritis; assay type: in vivo
Experimental: Male DBA/1J mice (7-9 weeks old on arrival; at least 7 weeks old at time of first immunization) were housed 5 per cage and were acclimated for enough days after arrival such that all animals were at least 7 weeks old at start of study.
Mice were anesthetized with Isoflurane and given intradermal collagen (2 mg/ml) injections at the base of the tail in a volume of 150 μl (D0 and D21). On days 21-35, onset of arthritis occurred and mice were randomized into treatment groups. Randomization into each group was done after swelling was obviously established in at least one paw, and attempts were made to assure approximately equal mean scores across the groups at time of enrollment. Treatment was initiated after enrollment and continued every day for a total of 10 days as outlined in Table 3. During the ten days of treatment, clinical scores were given for each of the paws (right front, left front, right rear, and left rear) according to the scoring methods provided below. […]
• 0 Normal • 1 Minimal—small areas of resorption, not readily apparent on low magnification, rare osteoclasts in affected joints • 2 Mild—more numerous areas of resorption, not readily apparent on low magnification, osteoclasts more numerous in affected joints • 3 Moderate—obvious resorption of medullary trabecular and cortical bone without full thickness defects in cortex, loss of some medullary trabeculae, lesion apparent on low magnification, osteoclasts more numerous in affected joints • 4 Marked—Full thickness defects in cortical bone, often with distortion of profile of remaining cortical surface, marked loss of medullary bone, numerous osteoclasts, affects most joints • Severe—Full thickness defects in cortical bone and destruction of joint architecture of all joints
Histologic parameters (mean±SE) for each group were analyzed for differences using the Chi Square Test and one way ANOVA. […]

CC[C@@H](O)/C=C/C=C\C[C@@H](O)/C=C/C=C/C=C\[C@@H](O)CCCC(=O)O [Compound X]
ex vivo LPS-stimulated cytokine production in whole blood [1]: inhibited; also recorded: significantly lower
clinical symptoms of arthritis (clinical scoring in the paws) ([2]; once daily i.v. at both 0.5 and 5.0 μg/kg, vs arthritic control): inhibited
pannus formation and bone loss (histologic scoring) ([2]; once daily i.v. at both 0.5 and 5.0 μg/kg, vs vehicle control): reduced
score of bone damage (histologic scoring in joints) ([2]; twice daily 5 μg/kg i.v., vs vehicle control): significant decrease
